{
  "source": "PubChem BioAssay AID1963974",
  "about": "(Molecular Pharmacology Branch, DTP, NCI, 2024)",
  "test_system": "648629-189-R-J1-PDC spheroids with HUVEC/MSC, viability",
  "assay": "Anticancer human tumor 648629-189-R-J1-PDC patient-derived bladder carcinoma cell line growth inhibition [PI3K]",
  "settings": "for pIC50: curve of first compound; for viability, T/C: stronger effect = lower value",
  "method_in_brief": "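Tumor cells grown as multi-cell spheroids with HUVEC endothelial cells and MSC fibroblast-like stroma were treated with targeted agents combined with inavolisib, alpelisib, duvelisib or copanlisib. Doses fell in half-log steps from near clinical Cmax, else from 10 microM. Viability was measured.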",
  "key": {"[1]": {"settings": "second compound 0.0316 µM, first compound 0.000316 µM"}, "[2]": {"settings": "second compound 0.0316 µM, first compound 0.001 µM"}, "[3]": {"settings": "second compound 0.0316 µM, first compound 0.00316 µM"}, "[4]": {"settings": "second compound 0.0316 µM, first compound 0.01 µM"}, "[5]": {"settings": "second compound 0.0316 µM, first compound 0.0316 µM"}, "[6]": {"settings": "second compound 0.0316 µM, first compound 0.1 µM"}, "[7]": {"settings": "second compound 0.1 µM, first compound 0.000316 µM"}, "[8]": {"settings": "second compound 0.1 µM, first compound 0.001 µM"}, "[9]": {"settings": "second compound 0.1 µM, first compound 0.00316 µM"}, "[10]": {"settings": "second compound 0.1 µM, first compound 0.01 µM"}, "[11]": {"settings": "second compound 0.1 µM, first compound 0.0316 µM"}, "[12]": {"settings": "second compound 0.1 µM, first compound 0.1 µM"}, "[13]": {"settings": "second compound 0.316 µM, first compound 0.000316 µM"}, "[14]": {"settings": "second compound 0.316 µM, first compound 0.001 µM"}, "[15]": {"settings": "second compound 0.316 µM, first compound 0.00316 µM"}, "[16]": {"settings": "second compound 0.316 µM, first compound 0.01 µM"}, "[17]": {"settings": "second compound 0.316 µM, first compound 0.0316 µM"}, "[18]": {"settings": "second compound 0.316 µM, first compound 0.1 µM"}, "[19]": {"settings": "second compound 1 µM, first compound 0.000316 µM"}, "[20]": {"settings": "second compound 1 µM, first compound 0.001 µM"}, "[21]": {"settings": "second compound 1 µM, first compound 0.00316 µM"}, "[22]": {"settings": "second compound 1 µM, first compound 0.01 µM"}, "[23]": {"settings": "second compound 1 µM, first compound 0.0316 µM"}, "[24]": {"settings": "second compound 1 µM, first compound 0.1 µM"}, "[25]": {"settings": "second compound 3.16 µM, first compound 0.000316 µM"}, "[26]": {"settings": "second compound 3.16 µM, first compound 0.001 µM"}, "[27]": {"settings": "second compound 3.16 µM, first compound 0.00316 µM"}, "[28]": {"settings": "second compound 3.16 µM, first compound 0.01 µM"}, "[29]": {"settings": "second compound 3.16 µM, first compound 0.0316 µM"}, "[30]": {"settings": "second compound 3.16 µM, first compound 0.1 µM"}, "[31]": {"settings": "second compound 10 µM, first compound 0.000316 µM"}, "[32]": {"settings": "second compound 10 µM, first compound 0.001 µM"}, "[33]": {"settings": "second compound 10 µM, first compound 0.00316 µM"}, "[34]": {"settings": "second compound 10 µM, first compound 0.01 µM"}, "[35]": {"settings": "second compound 10 µM, first compound 0.0316 µM"}, "[36]": {"settings": "second compound 10 µM, first compound 0.1 µM"}},
  "note": "pIC50: −log10 of the molar value.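 Further: spheroids exposed to agents for seven days before reading.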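 Wherever viability, T/C is given: percent of vehicle control luminescence where 100% = DMSO treated spheroids.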",
  "data": [
    {"smiles": "CC(=O)c1c(C)c2cnc(Nc3ccc(N4CCNCC4)cn3)nc2n(C2CCCC2)c1=O", "note": "+ CC(Nc1ncnc2nc[nH]c12)c1cc2cccc(Cl)c2c(=O)n1-c1ccccc1", "values": [
      {"measurement": "pIC50", "setting": "second compound 0.0316 µM", "result": "< 7.00"},
      {"measurement": "pIC50", "setting": "second compound 0.1 µM", "result": "< 7.00"},
      {"measurement": "pIC50", "setting": "second compound 0.316 µM", "result": "< 7.00"},
      {"measurement": "pIC50", "setting": "second compound 1 µM", "result": "< 7.00"},
      {"measurement": "pIC50", "setting": "second compound 3.16 µM", "result": "< 7.00"},
      {"measurement": "pIC50", "setting": "second compound 10 µM", "result": "< 7.00"},
      {"measurement": "viability, T/C", "setting": "[1]", "result": 102, "unit": "%"},
      {"measurement": "viability, T/C", "setting": "[2]", "result": 104, "unit": "%"},
      {"measurement": "viability, T/C", "setting": "[3]", "result": 101, "unit": "%"},
      {"measurement": "viability, T/C", "setting": "[4]", "result": 92.1, "unit": "%"},
      {"measurement": "viability, T/C", "setting": "[5]", "result": 111, "unit": "%"},
      {"measurement": "viability, T/C", "setting": "[6]", "result": 102, "unit": "%"},
      {"measurement": "viability, T/C", "setting": "[7]", "result": 102, "unit": "%"},
      {"measurement": "viability, T/C", "setting": "[8]", "result": 99.2, "unit": "%"},
      {"measurement": "viability, T/C", "setting": "[9]", "result": 98.5, "unit": "%"},
      {"measurement": "viability, T/C", "setting": "[10]", "result": 90.9, "unit": "%"},
      {"measurement": "viability, T/C", "setting": "[11]", "result": 117, "unit": "%"},
      {"measurement": "viability, T/C", "setting": "[12]", "result": 116, "unit": "%"},
      {"measurement": "viability, T/C", "setting": "[13]", "result": 93.1, "unit": "%"},
      {"measurement": "viability, T/C", "setting": "[14]", "result": 103, "unit": "%"},
      {"measurement": "viability, T/C", "setting": "[15]", "result": 107, "unit": "%"},
      {"measurement": "viability, T/C", "setting": "[16]", "result": 107, "unit": "%"},
      {"measurement": "viability, T/C", "setting": "[17]", "result": 111, "unit": "%"},
      {"measurement": "viability, T/C", "setting": "[18]", "result": 97.9, "unit": "%"},
      {"measurement": "viability, T/C", "setting": "[19]", "result": 100, "unit": "%"},
      {"measurement": "viability, T/C", "setting": "[20]", "result": 97.4, "unit": "%"},
      {"measurement": "viability, T/C", "setting": "[21]", "result": 109, "unit": "%"},
      {"measurement": "viability, T/C", "setting": "[22]", "result": 102, "unit": "%"},
      {"measurement": "viability, T/C", "setting": "[23]", "result": 112, "unit": "%"},
      {"measurement": "viability, T/C", "setting": "[24]", "result": 98.9, "unit": "%"},
      {"measurement": "viability, T/C", "setting": "[25]", "result": 90.8, "unit": "%"},
      {"measurement": "viability, T/C", "setting": "[26]", "result": 108, "unit": "%"},
      {"measurement": "viability, T/C", "setting": "[27]", "result": 91.9, "unit": "%"},
      {"measurement": "viability, T/C", "setting": "[28]", "result": 113, "unit": "%"},
      {"measurement": "viability, T/C", "setting": "[29]", "result": 101, "unit": "%"},
      {"measurement": "viability, T/C", "setting": "[30]", "result": 107, "unit": "%"},
      {"measurement": "viability, T/C", "setting": "[31]", "result": 90.3, "unit": "%"},
      {"measurement": "viability, T/C", "setting": "[32]", "result": 92.2, "unit": "%"},
      {"measurement": "viability, T/C", "setting": "[33]", "result": 95.3, "unit": "%"},
      {"measurement": "viability, T/C", "setting": "[34]", "result": 88.7, "unit": "%"},
      {"measurement": "viability, T/C", "setting": "[35]", "result": 89.3, "unit": "%"},
      {"measurement": "viability, T/C", "setting": "[36]", "result": 94.3, "unit": "%"}
    ]},
    {"smiles": "CC(C)n1nc(-c2ccc3oc(N)nc3c2)c2c(N)ncnc21", "note": "+ CC(Nc1ncnc2nc[nH]c12)c1cc2cccc(Cl)c2c(=O)n1-c1ccccc1", "values": [
      {"measurement": "pIC50", "setting": "second compound 0.0316 µM", "result": 7.14},
      {"measurement": "pIC50", "setting": "second compound 0.1 µM", "result": 7.20},
      {"measurement": "pIC50", "setting": "second compound 0.316 µM", "result": 7.20},
      {"measurement": "pIC50", "setting": "second compound 1 µM", "result": 7.21},
      {"measurement": "pIC50", "setting": "second compound 3.16 µM", "result": 7.25},
      {"measurement": "pIC50", "setting": "second compound 10 µM", "result": 7.49},
      {"measurement": "viability, T/C", "setting": "[1]", "result": 93.2, "unit": "%"},
      {"measurement": "viability, T/C", "setting": "[2]", "result": 96.1, "unit": "%"},
      {"measurement": "viability, T/C", "setting": "[3]", "result": 87.9, "unit": "%"},
      {"measurement": "viability, T/C", "setting": "[4]", "result": 85.4, "unit": "%"},
      {"measurement": "viability, T/C", "setting": "[5]", "result": 85.8, "unit": "%"},
      {"measurement": "viability, T/C", "setting": "[6]", "result": 36.5, "unit": "%"},
      {"measurement": "viability, T/C", "setting": "[7]", "result": 101, "unit": "%"},
      {"measurement": "viability, T/C", "setting": "[8]", "result": 86.5, "unit": "%"},
      {"measurement": "viability, T/C", "setting": "[9]", "result": 101, "unit": "%"},
      {"measurement": "viability, T/C", "setting": "[10]", "result": 97.7, "unit": "%"},
      {"measurement": "viability, T/C", "setting": "[11]", "result": 69.5, "unit": "%"},
      {"measurement": "viability, T/C", "setting": "[12]", "result": 37.5, "unit": "%"},
      {"measurement": "viability, T/C", "setting": "[13]", "result": 99.5, "unit": "%"},
      {"measurement": "viability, T/C", "setting": "[14]", "result": 107, "unit": "%"},
      {"measurement": "viability, T/C", "setting": "[15]", "result": 104, "unit": "%"},
      {"measurement": "viability, T/C", "setting": "[16]", "result": 85.8, "unit": "%"},
      {"measurement": "viability, T/C", "setting": "[17]", "result": 73.8, "unit": "%"},
      {"measurement": "viability, T/C", "setting": "[18]", "result": 34.7, "unit": "%"},
      {"measurement": "viability, T/C", "setting": "[19]", "result": 104, "unit": "%"},
      {"measurement": "viability, T/C", "setting": "[20]", "result": 89.6, "unit": "%"},
      {"measurement": "viability, T/C", "setting": "[21]", "result": 101, "unit": "%"},
      {"measurement": "viability, T/C", "setting": "[22]", "result": 85.6, "unit": "%"},
      {"measurement": "viability, T/C", "setting": "[23]", "result": 68.8, "unit": "%"},
      {"measurement": "viability, T/C", "setting": "[24]", "result": 36.5, "unit": "%"},
      {"measurement": "viability, T/C", "setting": "[25]", "result": 85.8, "unit": "%"},
      {"measurement": "viability, T/C", "setting": "[26]", "result": 103, "unit": "%"},
      {"measurement": "viability, T/C", "setting": "[27]", "result": 91.4, "unit": "%"},
      {"measurement": "viability, T/C", "setting": "[28]", "result": 84.6, "unit": "%"},
      {"measurement": "viability, T/C", "setting": "[29]", "result": 66.1, "unit": "%"},
      {"measurement": "viability, T/C", "setting": "[30]", "result": 33.8, "unit": "%"},
      {"measurement": "viability, T/C", "setting": "[31]", "result": 83.1, "unit": "%"},
      {"measurement": "viability, T/C", "setting": "[32]", "result": 87.1, "unit": "%"},
      {"measurement": "viability, T/C", "setting": "[33]", "result": 81.4, "unit": "%"},
      {"measurement": "viability, T/C", "setting": "[34]", "result": 72.3, "unit": "%"},
      {"measurement": "viability, T/C", "setting": "[35]", "result": 50.4, "unit": "%"},
      {"measurement": "viability, T/C", "setting": "[36]", "result": 30.3, "unit": "%"}
    ]}
  ]
}
